In one data set the target is T1, MAP2K1 (MEK1) (Homo sapiens, UniProt Q02750).
T1 construct: purchased ThermoFisher
Nature of the data set: MEK Inhibition Assay (Biological Example 1b, Z'-LYTE). Particulars: Biological Example 1b (compounds 1, 3, 5, 7-8); read-out: Assay 1: biochemical MEK IC50. How it is done: MEK1 inhibitory activity of compounds were tested using the following procedure (protocol available at thermofisher.com/content/dam/LifeTech/migration/files/drug-discovery/pdfs.par.60256.file.dat/20130430%20ssbk%20customer%20protocol%20and%20assay%20conditions.pdf). The Z′-LYTE biochemical assay (ThermoFisher) employs a fluorescence-based, coupled-enzyme format and is based on the differential sensitivity of phosphorylated and non-phosphorylated peptides to proteolytic cleavage.
Test compounds in 100% DMSO were screened in 1% DMSO (final) in the well. For 10 point titrations, 3-fold serial dilutions are conducted from the starting concentration of 30 μM.
After the 1 hour incubation, 5 μL of a 1:1024 dilution of Development Reagent A (available from Invitrogen, catalog no. PV3295) was added.
ATP solutions were diluted to a 4× working concentration in Kinase Buffer (50 mM HEPES pH 7.5, 0.01% BRIJ-35, 10 mM MgCl2, 1 mM EGTA). ATP Km apparent was previously determined using a Z′-LYTE assay. The Development Reagent was diluted in Development Buffer (available from Invitrogen, catalog no. P3127).
Assay Protocol: 2.5 μL of 4× test compound or 100 nL of 100× Test Compound plus 2.4 μL Kinase Buffer, 5 μL of the 2× Peptide/Kinase Mixture, 2.5 μL of 4×ATP Solution were added to the plates and placed on a shake plate for 30-seconds. The kinase reaction was allowed to proceed for 60-minute at room temperature, before 5 μL of Development Reagent Solution was added, and the mixture agitated for 30-seconds on a shake plate. The mixture was incubated for 60-minute at room temperature. Fluorescence was measured using a plate reader and the data were analyzed.
This control yielded 100% cleaved peptide in the Development Reaction. The 100% Phosphorylation Control, which consisted of a synthetically phosphorylated peptide of the same sequence as the peptide substrate, was designed to allow for the calculation of percent phosphorylation. This control yielded a very low percentage of cleaved peptide in the Development Reaction. The 0% Phosphorylation and 100% Phosphorylation Controls allow for the calculation of the percent phosphorylation achieved in a specific reaction well.
The minimum emission ratio in a screen was established by the 0% Inhibition Control, which contained active kinase. This control was designed to produce a 10-50% phosphorylated peptide in the Kinase Reaction. Cascade assays may produce up to 70% phosphorylated peptide.
A known inhibitor control standard curve, 10 point titration, was run for each individual kinase on the same plate as the kinase to ensure the kinase was inhibited within an expected IC50 range previously determined.
The following controls are prepared for each concentration of Test Compound assayed. […] The expected value for a non-interfering compound should be 100%. Any value outside of 90% to 110% was flagged. […] The expected value for a non-fluorescence compound should be 0%. Any value >20% was flagged.
The data in Table A was calculated. XLfit from IDBS was used. The dose response curve was curve fit to model number 205 (sigmoidal dose-response model).

The nature of data set [1]: S9 Stability Assay, human liver S9 fraction. In kind it is in vitro ADME. To be noted: for half-life at 1 μM / microsomal CLint at 1 μM: pH 7.4, human liver S9 fraction. How it is done: Compounds were assessed for metabolic stability in human skin by assessing their rate of disappearance from human S9 skin fraction. Similarly, compounds were assessed for metabolic stability in human liver by assessing their rate of disappearance from human S9 liver fraction. The protocol below can be used to assess the difference between skin and hepatic metabolism.
The assay was carried out in 96-well microtiter plates at 37° C. Reaction mixtures (25 μL) contained a final concentration of 1 μM test compound, 2 mg/mL liver or skin S9 protein, and 1 mM NADPH in buffer (100 mM potassium phosphate, pH 7.4 buffer with 1 mM EDTA, 3 mM MgCl2). At each of the time points (0, 15, 30, and 60 minutes), 150 μL of quench solution (100% acetonitrile with 0.1% formic acid) with internal standard was transferred to each well. Besides the zero minute controls, mixtures containing the same components except the NADPH were also prepared as the negative control. Verapamil or testosterone was included as a positive control to verify assay performance. Plates were sealed and centrifuged at 4° C. for 15 minutes at 4000 rpm. The supernatant was transferred to fresh plates for LC/MS/MS analysis.
All samples were analyzed on LC/MS/MS using an AB Sciex API 4000 instrument, coupled to a Shimadzu LC-20AD LC Pump system. Analytical samples were separated using a Waters Atlantis T3 dC18 reverse phase HPLC column (20 mm×2.1 mm) at a flow rate of 0.5 mL/min. The mobile phase consisted of 0.1% formic acid in water (solvent A) and 0.1% formic acid in 100% acetonitrile (solvent B).
The extent of metabolism was calculated as the disappearance of the test compound, compared to the 0-min control reaction incubations. Initial rates were calculated for the compound concentration and used to determine t1/2 values and subsequently, the intrinsic clearance, CLint=(0.693) (1/t1/2 (min)) (mL incubation/mg of S9 protein).

In another data set the target is T2, MEK1 (Homo sapiens, UniProt Q02750).
T2 construct: N-terminal His-tagged recombinant human full length protein, expressed in insect cells; His (N); purchased Invitrogen PV3303; host or cells: insect cells
T2 sequence (Q02750 whole entry): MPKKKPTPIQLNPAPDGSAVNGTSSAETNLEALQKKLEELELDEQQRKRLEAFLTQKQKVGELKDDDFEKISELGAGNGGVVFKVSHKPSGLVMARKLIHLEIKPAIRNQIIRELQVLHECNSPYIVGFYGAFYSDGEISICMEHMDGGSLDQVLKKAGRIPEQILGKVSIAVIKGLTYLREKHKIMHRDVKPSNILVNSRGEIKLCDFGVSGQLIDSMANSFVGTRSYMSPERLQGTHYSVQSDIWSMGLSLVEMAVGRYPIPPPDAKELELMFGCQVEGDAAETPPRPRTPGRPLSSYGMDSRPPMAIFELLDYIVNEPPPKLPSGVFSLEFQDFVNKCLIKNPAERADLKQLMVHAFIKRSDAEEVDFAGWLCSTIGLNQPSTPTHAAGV
Briefly: MEK Inhibition Assay (Biological Example 1a, 33P-ATP, P81 filter-binding). Particulars: Biological Example 1a (used for compounds 2 and 6); read-out: Assay 1: biochemical MEK IC50. How it is done:
MEK1 inhibitory activity of compounds were tested using the following procedure.
• Reaction buffer: 20 mM Hepes (pH 7.5), 10 mM MgCl2, 1 mM EGTA, 0.02% Brij35, 0.02 mg/mL bovine serum albumin, 0.1 mM Na3V04, 2 mM DTT, 1% DMSO • Enzyme: MEK1, Invitrogen cat #PV3303 • N-terminal His-tagged recombinant human full length protein, expressed in insect cells. Activated in vitro by RAF1. MW=49.2 kDa, GenBank Accession No. NP_002746. • Substrate: 5 μM ERK2 (K52R), • Kinase-dead mutant, (GenBank Accession No. NM_0011949), aa2-358 with N-terminal His6 tag, MW=43.63 kDa, expressed in E. coli.
The substrate was prepared in freshly prepared Reaction Buffer. The kinase was delivered into the substrate solution and gently mixed. Test compounds were delivered in 100% DMSO into the kinase reaction mixture by Acoustic technology (Echo550; nanoliter range), and incubated for 20 min at room temperature. ^33P-ATP was delivered into the reaction mixture to initiate the reaction. The reaction mixture was incubated for 2 hours at room temperature. Kinase activity was detected by P81 filter-binding method.

For another data set, the system named is A375 cells. Nature of the data set: A375 (BRAF) GI50 cell-based assay (Cell Titer-Glo). Particulars: Homo sapiens, A-375, 72 hours, read-out: Assay 2: A375 (BRAF) GI50. On the procedure:
(§1) Alternatively, the following procedure can be used to measure cell-based activity. Test compounds were dissolved in DMSO in 10 mM stock. Cell Titer-Glo® 2.0 Luminescent cell viability assay reagent was purchased from Promega (Madison, Wis.). A375 and HCT116 cell lines were purchased from American Type Culture Collection (Manassas, Va.). For A375 cells, cell culture media was DMEM+10% FBS. For HCT116 cells, cell culture media was McCoy's 5A+10% FBS. All media were supplemented with 100 μg/mL of penicillin, and 100 μg/mL of streptomycin. Cultures were maintained at 37° C. in a humidified atmosphere of 5% CO2 and 95% air.
(§2) Test compounds were diluted in DMSO solution with 10-dose and 3-fold dilutions in a source plate starting at 10 mM. […] Luminescence was recorded by Envision 2104 Multilabel Reader (PerkinElmer, Santa Clara, Calif.). The number of viable cells in culture was determined based on quantitation of the ATP present in each culture well. […] Luminescence was recorded by Envision 2104 Multilabel Reader (PerkinElmer, Santa Clara, Calif.). The number of viable cells in culture was determined based on quantitation of the ATP present in each culture well. […] All parameters in the equation were calculated by GraphPad Prism 4 program. […] Accordingly, GI50 is the value of 10^X, where X was calculated by the Curve Fitting Equation when Y=50 using Excel.

The next data set deals with HCT116 cells. Briefly: HCT116 (Kras) GI50 cell-based assay (Cell Titer-Glo). To be noted: Homo sapiens, HCT-116, 72 hours, read-out: Assay 3: HCT116 (Kras) GI50. How it is done:
as §1, §2
In general terms: In ATP-based viability assays light output follows the ATP content of the culture.

The mark [2] stands for this setting: human liver S9, unit min printed in b472 and Table 1, not in this table, read-out: Assay 4: human liver S9 half-life.
Where [3] appears, read: human, read-out: Assay 5: human liver S9 intrinsic clearance value (μL/min/mg protein).

SMILES strings stand for the structures. Read-outs that look alike come from different tables or passages of the source.

T1 sequence (Q02750 whole entry): as above

Take `O=C(NOCCO)c1c(Nc2ccc(I)cc2F)sc2ncccc12` [Ex. 3, 2-((2-Fluoro-4-iodophenyl)amino)-N-(2-hydroxyethoxy)thieno[2,3-b]pyridine-3-carboxamide]: the IC50 at MAP2K1 (MEK1) was found to be 74 nM. The “Assay 5: human liver S9 intrinsic clearance value (μL/min/mg protein)” value in data set [1] (human liver S9) came to 13.35 μL/min/mg protein. Moreover, the half-life at 1 μM in data set [1] (Table 1, 1 μM test compound, 2 mg/mL S9 protein, NADPH, read-out: Liver S9 t1/2) was found to be 26 min. For the same molecule, in data set [1] (Table 1, read-out: CLint (μL/min/mg protein)), the microsomal CLint at 1 μM was 13.3 µL/min/mg.
On to `COc1ccc2c(C(=O)NOCCO)c(Nc3ccc(I)cc3F)sc2n1` [Ex. 6, 2-((2-fluoro-4-iodophenyl)amino)-N-(2-hydroxyethoxy)-6-methoxythieno[2,3-b]pyridine-3-carboxamide], for which the IC50 at MEK1 is 2910 nM.
Regarding `COc1cnc2sc(Nc3ccc(I)cc3F)c(C(=O)NOCCO)c2c1` [Ex. 7, 2-((2-Fluoro-4-iodophenyl)amino)-N-(2-hydroxyethoxy)-5-methoxythieno[2,3-b]pyridine-3-carboxamide], the half-maximal inhibitory concentration (IC50) on MAP2K1 (MEK1) came to 150 nM. For the same molecule, the half-life at 1 μM in data set [1] (setting [2]) amounted to 68 min. The microsomal CLint at 1 μM in data set [1] (setting [3]) is 5.1 µL/min/mg.
The like results for `Cc1ccc2c(C(=O)NOCCO)c(Nc3ccc(I)cc3F)sc2n1` [Ex. 5, 2-((2-Fluoro-4-iodophenyl)amino)-N-(2-hydroxyethoxy)-6-methylthieno[2,3-b]pyridine-3-carboxamide] were, in that order, 256 nM, 54 min and 6.36 µL/min/mg.
Regarding `C#Cc1ccc(Nc2sc3ncccc3c2C(=O)NOCCO)c(F)c1` [Ex. 1, 2-((4-ethynyl-2-fluorophenyl)amino)-N-(2-hydroxyethoxy)thieno[2,3-b]pyridine-3-carboxamide], on MAP2K1 (MEK1), the IC50 came out at 1030 nM. Further, the half-life at 1 μM in data set [1] (setting [2]) amounted to 29 min. The microsomal CLint at 1 μM in data set [1] (setting [3]) was 11.8 µL/min/mg. Besides, the GI50 in the data set on A375 cells was found to be 141 nM; with HCT116 cells, 348 nM.
For `CSc1ccc(Nc2sc3ncccc3c2C(=O)NOCCO)c(F)c1` [Ex. 2, 2-((2-fluoro-4-(methylthio)phenyl)amino)-N-(2-hydroxyethoxy)thieno[2,3-b]pyridine-3-carboxamide], the IC50 at MEK1 was determined as 915 nM. Moreover, in data set [1] (setting [2]), the half-life at 1 μM came to 16 min. The microsomal CLint at 1 μM in data set [1] (setting [3]) worked out at 21.2 µL/min/mg. In addition, the values for the concentration for 50% growth inhibition (GI50) with A375 cells and in the data set on HCT116 cells were 145 nM and 257 nM, respectively.

A word on the IC50: it is the midpoint of a concentration-inhibition curve. As a reminder, the GI50 is the concentration at which growth is held to half of that of the control.

For the origin of these results see patent US11542271B2, “Fused heteroaromatic-aniline compounds for treatment of dermal disorders” (NFlection Therapeutics, Inc., priority 2017, dated 2023).
